According to the supplement of paper PMC7840683:
± gives the standard deviation of the averaged measurements.

Test system: HepaRG
Experiment: LDH release cytotoxicity, % of total lysis control; higher = more cytotoxic
Conditions: 48 h
Summary of the method: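 On collagen I-coated 96-well plates, single-lot HepaRG cells were exposed for 48 h, in duplicate, to eight-point half-log series of test chemicals beginning at 100 µM. The exposure medium was serum-free induction medium with 0.5% DMSO, and total lysis wells got 0.1% Triton X. Resorufin fluorescence from the CytoTox-ONE reaction, read on a Tecan Safire, reported LDH in 50 µL of spent medium. Percent cytotoxicity came from normalization to on-plate vehicle and total lysis controls, averaged over the duplicates.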

Compound | LDH release cytotoxicity (0.03162 µM) | LDH release cytotoxicity (0.1 µM) | LDH release cytotoxicity (0.3162278 µM) | LDH release cytotoxicity (1 µM) | LDH release cytotoxicity (3.16228 µM) | LDH release cytotoxicity (10 µM) | LDH release cytotoxicity (31.6228 µM) | LDH release cytotoxicity (100 µM) | LDH release cytotoxicity (0.031623 µM) | LDH release cytotoxicity (0.316228 µM) | LDH release cytotoxicity (0.0327296 µM) | LDH release cytotoxicity (0.1035 µM) | LDH release cytotoxicity (0.327296 µM) | LDH release cytotoxicity (1.035 µM) | LDH release cytotoxicity (3.27296 µM) | LDH release cytotoxicity (10.35 µM) | LDH release cytotoxicity (32.729574 µM) | LDH release cytotoxicity (103.5 µM)
CSc1ccc(Oc2ccc(S(N)(=O)=O)cc2CN(C)C)cc1C | -1.53 ± 0.56% | -2.12 ± 0.38% | -3.24 ± 1% | -3.17 ± 0.95% | -2.65 ± 0.17% | -1.44 ± 0.31% | -1.38 ± 0.35% | 13.7 ± 1.8% | – | – | – | – | – | – | – | – | – | –
O=C(NC(c1ccccc1)C1CCCCN1)c1cccc(C(F)(F)F)c1Cl (stereo not given) | -1.29 ± 1.3% | -1.57 ± 0.071% | -0.0611 ± 0.068% | -1.79 ± 0.54% | -0.61 ± 1.2% | 0.734 ± 0.85% | 24.2 ± 1.3% | 86.2 ± 3.2% | – | – | – | – | – | – | – | – | – | –
NC(=O)N(O)C1C=CC(Oc2cccc(Oc3ccc(F)cc3)c2)C1 (stereo not given) | -0.313 ± 0.089% | -0.862 ± 0.21% | -1.12 ± 0.51% | -0.265 ± 0.5% | -0.557 ± 0.086% | -1.09 ± 0.79% | 1.56 ± 0.69% | 19.5 ± 2.4% | – | – | – | – | – | – | – | – | – | –
NC(=O)N1C(=O)C(C(=O)c2cc(Cl)cs2)c2cc(F)c(Cl)cc21 (stereo not given) | -0.6756 ± 0.0047% | -0.635 ± 1.4% | -0.381 ± 0.96% | -0.761 ± 0.069% | -0.334 ± 0.65% | 1.12 ± 0.053% | 64.6 ± 1% | 50.6 ± 8.4% | – | – | – | – | – | – | – | – | – | –
NCC1(Cc2noc(=O)[nH]2)CCCCC1 | -1.45 ± 0.35% | -1.66 ± 0.47% | -1.14 ± 0.84% | -1.29 ± 0.97% | -1.26 ± 0.87% | -1.72 ± 0.14% | -2.07 ± 0.18% | 17.4 ± 1.5% | – | – | – | – | – | – | – | – | – | –
COC(=O)C(C)Oc1ccc(Oc2ccc(Cl)cc2Cl)cc1 (racemic) [Methyl (RS)-2-[4-(2,4-dichlorophenoxy)phenoxy]propionate] | -0.971 ± 1.5% | -1.59 ± 0.12% | -1.59 ± 1.4% | -2.24 ± 0.54% | -1.38 ± 0.41% | -1.28 ± 0.4% | -1.8 ± 0.099% | -0.104 ± 0.18% | – | – | – | – | – | – | – | – | – | –
CC(O)CN(CCN(CC(C)O)CC(C)O)CC(C)O (stereo not given) [1,1',1'',1'''-(Ethanediylnitrilo)tetrakis(2-propanol)] | -1.14 ± 0.41% | -1.86 ± 1.1% | -1.7 ± 0.17% | -2.22 ± 0.98% | -2.41 ± 0.2% | -1.35 ± 1.4% | 5.57 ± 1.1% | 18.7 ± 1.4% | – | – | – | – | – | – | – | – | – | –
C[N+]1(C)CCCCC1 [1,1-Dimethylpiperidinium chloride] | -1.22 ± 0.36% | -0.187 ± 0.78% | -1.4 ± 0.52% | -1.35 ± 0.62% | 0.248 ± 0.65% | 0.722 ± 0.62% | -0.465 ± 0.11% | 0.762 ± 0.26% | – | – | – | – | – | – | – | – | – | –
c1ccc2[nH]nnc2c1 [1,2,3-Benzotriazole] | -1.49 ± 0.2% | -1.03 ± 0.94% | -1.12 ± 0.52% | -1.12 ± 0.55% | -1.23 ± 0.65% | -0.765 ± 0.061% | 0.381 ± 0.99% | 1.81 ± 0.42% | – | – | – | – | – | – | – | – | – | –
Clc1cccc(Cl)c1Cl [1,2,3-Trichlorobenzene] | – | -2.59 ± 0.72% | – | -2.67 ± 0.31% | -3.67 ± 0.82% | -2.75 ± 0.99% | -2 ± 0.85% | -0.185 ± 0.67% | -0.151 ± 0.71% | -3.02 ± 0.044% | – | – | – | – | – | – | – | –
ClCC(Cl)CCl [1,2,3-Trichloropropane] | -1.72 ± 1.1% | -1.57 ± 0.41% | -1.6 ± 0.79% | -0.683 ± 0.4% | -0.233 ± 1.1% | -1.91 ± 0.066% | -1.01 ± 0.093% | 0.236 ± 0.36% | – | – | – | – | – | – | – | – | – | –
Clc1cc(Cl)c(Cl)cc1Cl [1,2,4,5-Tetrachlorobenzene] | -1.15 ± 0.52% | -1.29 ± 0.64% | -0.238 ± 1.4% | -1.08 ± 0.043% | -0.932 ± 0.35% | -0.175 ± 0.34% | -0.116 ± 0.54% | 1.14 ± 0.66% | – | – | – | – | – | – | – | – | – | –
Clc1ccc(Cl)c(Cl)c1 [1,2,4-Trichlorobenzene] | -0.83 ± 0.22% | -0.799 ± 0.65% | -1.05 ± 0.33% | -0.848 ± 0.19% | -1.46 ± 0.75% | -0.626 ± 0.011% | -0.776 ± 0.65% | -0.785 ± 0.46% | – | – | – | – | – | – | – | – | – | –
Cc1ccc(C)c(C)c1 [1,2,4-Trimethylbenzene] | -1.1 ± 0.13% | -1.09 ± 0.14% | -1.49 ± 0.63% | -1.38 ± 0.46% | -0.646 ± 0.4% | -0.854 ± 0.4% | 0.161 ± 0.23% | 1.55 ± 0.46% | – | – | – | – | – | – | – | – | – | –
O=Cc1ccccc1C=O [1,2-Benzenedicarboxaldehyde] | -1.01 ± 0.34% | -0.945 ± 0.21% | -1.43 ± 0.23% | -0.52 ± 1.3% | -0.768 ± 0.29% | -0.0584 ± 0.28% | 1.36 ± 0.23% | 7.96 ± 1.3% | – | – | – | – | – | – | – | – | – | –
O=c1[nH]sc2ccccc12 [1,2-Benzisothiazolin-3-one] | – | – | – | – | – | – | – | – | – | – | -0.0461 ± 1.4% | -0.556 ± 0.24% | -0.331 ± 0.21% | -0.299 ± 0.034% | -0.612 ± 0.23% | -0.701 ± 0.032% | 0.567 ± 0.56% | 2.85 ± 2.2%
Clc1ccccc1Cl [1,2-Dichlorobenzene] | -1.68 ± 0.72% | -1.12 ± 0.22% | -2 ± 0.56% | -1.81 ± 0.094% | -1.83 ± 0.1% | -1.2 ± 0.57% | -1.06 ± 0.67% | -0.133 ± 0.15% | – | – | – | – | – | – | – | – | – | –
Cc1cccc([N+](=O)[O-])c1C [1,2-Dimethyl-3-nitrobenzene] | 0.0499 ± 0.58% | -0.56 ± 0.35% | -0.0544 ± 1% | 0.0899 ± 0.093% | -0.155 ± 0.3% | 2.03 ± 0.56% | 1.1 ± 0.079% | 1.87 ± 0.3% | – | – | – | – | – | – | – | – | – | –
Cc1ccc([N+](=O)[O-])cc1C [1,2-Dimethyl-4-nitrobenzene] | -1.16 ± 0.66% | -1.81 ± 0.53% | -1.44 ± 0.14% | -1.1 ± 0.27% | -1.56 ± 0.13% | -1.07 ± 0.013% | -0.524 ± 0.73% | 0.459 ± 1.3% | – | – | – | – | – | – | – | – | – | –
c1ccc(NNc2ccccc2)cc1 [1,2-Diphenylhydrazine] | -1.61 ± 1.4% | -1.5 ± 0.65% | -1.76 ± 0.62% | -2.09 ± 1.2% | -1.82 ± 0.17% | -1.49 ± 0.079% | -1.72 ± 0.59% | -0.591 ± 1% | – | – | – | – | – | – | – | – | – | –
